Laboratory results: ChEMBL document CHEMBL4330074, “Discovery of potent azaindazole leucine-rich repeat kinase 2 (LRRK2) inhibitors possessing a key intramolecular hydrogen bond - Part 2” (Bioorg Med Chem Lett, 2019)

Legend:
[1] = target: T1, Leucine-rich repeat serine/threonine-protein kinase 2 (Homo sapiens, UniProt Q5S007, G2019S); test: Inhibition of recombinant human GST-tagged LRRK2 G2019S mutant catalytic domain (970 to 2527 residues) expressed in insect cells using RtGWWRFYTLRRARQGNTKQR as substrate measured after 180 mins in presence of [gamma33P]ATP by topcount method
[2] = target: T1, Leucine-rich repeat serine/threonine-protein kinase 2; test: Inhibition of LRRK2 G2019S mutant (unknown origin) by cell based assay
P-gp (human MDR1) = test: Efflux ratio of permeability from basolateral to apical side over apical to basolateral side in MDCK-MDR1 cells harboring human P-gp at 5 uM; format: ADME, cell-based, Canis lupus familiaris; details: dog
[3] = Clearance in rat at 0.5 mg/kg, iv; format: ADME, organism-based; details: in vivo
Homo sapiens = species on record: Homo sapiens; test: Selectivity ratio of Ki for JAK2 (unknown origin) to Ki for recombinant human GST-tagged LRRK2 G2019S mutant catalytic domain (970 to 2527 residues) expressed in insect cells
[4] = target: T2, Dual specificity protein kinase TTK (Homo sapiens) (UniProt P33981); test: Inhibition of TTK (unknown origin) at 1 uM relative to control
T2 sequence (whole entry): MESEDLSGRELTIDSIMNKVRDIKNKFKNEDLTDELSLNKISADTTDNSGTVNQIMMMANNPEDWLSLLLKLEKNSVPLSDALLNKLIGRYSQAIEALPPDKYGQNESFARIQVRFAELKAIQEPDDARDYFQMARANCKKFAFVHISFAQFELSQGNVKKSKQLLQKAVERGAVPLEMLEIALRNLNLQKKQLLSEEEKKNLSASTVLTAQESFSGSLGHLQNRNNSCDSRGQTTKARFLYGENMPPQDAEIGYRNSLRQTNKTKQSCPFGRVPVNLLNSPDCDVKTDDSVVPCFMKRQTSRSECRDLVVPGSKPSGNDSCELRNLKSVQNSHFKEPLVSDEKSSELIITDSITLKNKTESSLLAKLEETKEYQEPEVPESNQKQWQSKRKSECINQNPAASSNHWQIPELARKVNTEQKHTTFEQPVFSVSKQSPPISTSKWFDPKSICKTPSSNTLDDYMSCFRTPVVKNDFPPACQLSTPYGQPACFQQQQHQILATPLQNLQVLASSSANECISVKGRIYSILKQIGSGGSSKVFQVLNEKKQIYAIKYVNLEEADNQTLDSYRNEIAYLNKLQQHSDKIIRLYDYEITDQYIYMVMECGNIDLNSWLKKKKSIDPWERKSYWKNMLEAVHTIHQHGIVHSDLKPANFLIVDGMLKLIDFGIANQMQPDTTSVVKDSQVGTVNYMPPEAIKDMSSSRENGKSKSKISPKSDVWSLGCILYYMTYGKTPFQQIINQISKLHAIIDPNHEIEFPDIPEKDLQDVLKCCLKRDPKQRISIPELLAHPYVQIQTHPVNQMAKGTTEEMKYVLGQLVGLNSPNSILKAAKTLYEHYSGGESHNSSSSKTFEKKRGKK

[5] = target: Serine/threonine-protein kinase 26 (Homo sapiens) (UniProt Q9P289); test: Inhibition of MST4 (unknown origin) at 1 uM relative to control
TAK1/TAB1 (Homo sapiens) = TAK1/TAB1 (Homo sapiens) (UniProt Q15750+O43318); test: Inhibition of TAK1/TAB1 (unknown origin) at 1 uM relative to control; format: protein-complex assay
[6] = Oral bioavailability in rat at 1 mg/kg; format: ADME, organism-based; details: in vivo
[7] = Ratio of AUC in rat brain to plasma at 0.5 mg/kg, iv; format: ADME, organism-based; details: brain and plasma, read-out: Ratio AUC
[8] = Ratio of fAUC in rat brain to plasma at 0.5 mg/kg, iv; format: ADME, organism-based; details: brain and plasma
[9] = Clearance in rat at 0.5 to 1 mg/kg, iv; format: ADME, organism-based; details: in vivo
[10] = target: Maternal embryonic leucine zipper kinase (Homo sapiens) (UniProt Q14680); test: Inhibition of MELK (unknown origin) at 1 uM relative to control
Maternal embryonic leucine zipper kinase (Homo sapiens), sequence (Q14680 whole entry, looked up): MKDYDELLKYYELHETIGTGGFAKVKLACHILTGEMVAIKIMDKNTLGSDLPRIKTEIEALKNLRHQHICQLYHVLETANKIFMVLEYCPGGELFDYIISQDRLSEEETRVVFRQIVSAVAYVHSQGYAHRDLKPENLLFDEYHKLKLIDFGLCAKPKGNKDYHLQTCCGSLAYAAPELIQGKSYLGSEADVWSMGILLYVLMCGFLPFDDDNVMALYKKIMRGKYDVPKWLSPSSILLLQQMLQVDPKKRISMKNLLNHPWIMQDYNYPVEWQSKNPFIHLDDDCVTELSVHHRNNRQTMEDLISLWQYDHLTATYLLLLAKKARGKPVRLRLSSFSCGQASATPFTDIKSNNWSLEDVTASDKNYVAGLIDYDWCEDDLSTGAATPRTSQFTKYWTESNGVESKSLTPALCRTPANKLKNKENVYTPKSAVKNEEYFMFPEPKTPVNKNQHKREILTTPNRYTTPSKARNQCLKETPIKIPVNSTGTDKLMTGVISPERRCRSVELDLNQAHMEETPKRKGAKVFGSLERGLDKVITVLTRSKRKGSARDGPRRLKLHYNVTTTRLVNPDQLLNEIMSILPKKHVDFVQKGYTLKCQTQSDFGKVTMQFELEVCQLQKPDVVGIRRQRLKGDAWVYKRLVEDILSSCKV

T1 sequence (Q5S007 whole entry G2019S, the tested form may be a part): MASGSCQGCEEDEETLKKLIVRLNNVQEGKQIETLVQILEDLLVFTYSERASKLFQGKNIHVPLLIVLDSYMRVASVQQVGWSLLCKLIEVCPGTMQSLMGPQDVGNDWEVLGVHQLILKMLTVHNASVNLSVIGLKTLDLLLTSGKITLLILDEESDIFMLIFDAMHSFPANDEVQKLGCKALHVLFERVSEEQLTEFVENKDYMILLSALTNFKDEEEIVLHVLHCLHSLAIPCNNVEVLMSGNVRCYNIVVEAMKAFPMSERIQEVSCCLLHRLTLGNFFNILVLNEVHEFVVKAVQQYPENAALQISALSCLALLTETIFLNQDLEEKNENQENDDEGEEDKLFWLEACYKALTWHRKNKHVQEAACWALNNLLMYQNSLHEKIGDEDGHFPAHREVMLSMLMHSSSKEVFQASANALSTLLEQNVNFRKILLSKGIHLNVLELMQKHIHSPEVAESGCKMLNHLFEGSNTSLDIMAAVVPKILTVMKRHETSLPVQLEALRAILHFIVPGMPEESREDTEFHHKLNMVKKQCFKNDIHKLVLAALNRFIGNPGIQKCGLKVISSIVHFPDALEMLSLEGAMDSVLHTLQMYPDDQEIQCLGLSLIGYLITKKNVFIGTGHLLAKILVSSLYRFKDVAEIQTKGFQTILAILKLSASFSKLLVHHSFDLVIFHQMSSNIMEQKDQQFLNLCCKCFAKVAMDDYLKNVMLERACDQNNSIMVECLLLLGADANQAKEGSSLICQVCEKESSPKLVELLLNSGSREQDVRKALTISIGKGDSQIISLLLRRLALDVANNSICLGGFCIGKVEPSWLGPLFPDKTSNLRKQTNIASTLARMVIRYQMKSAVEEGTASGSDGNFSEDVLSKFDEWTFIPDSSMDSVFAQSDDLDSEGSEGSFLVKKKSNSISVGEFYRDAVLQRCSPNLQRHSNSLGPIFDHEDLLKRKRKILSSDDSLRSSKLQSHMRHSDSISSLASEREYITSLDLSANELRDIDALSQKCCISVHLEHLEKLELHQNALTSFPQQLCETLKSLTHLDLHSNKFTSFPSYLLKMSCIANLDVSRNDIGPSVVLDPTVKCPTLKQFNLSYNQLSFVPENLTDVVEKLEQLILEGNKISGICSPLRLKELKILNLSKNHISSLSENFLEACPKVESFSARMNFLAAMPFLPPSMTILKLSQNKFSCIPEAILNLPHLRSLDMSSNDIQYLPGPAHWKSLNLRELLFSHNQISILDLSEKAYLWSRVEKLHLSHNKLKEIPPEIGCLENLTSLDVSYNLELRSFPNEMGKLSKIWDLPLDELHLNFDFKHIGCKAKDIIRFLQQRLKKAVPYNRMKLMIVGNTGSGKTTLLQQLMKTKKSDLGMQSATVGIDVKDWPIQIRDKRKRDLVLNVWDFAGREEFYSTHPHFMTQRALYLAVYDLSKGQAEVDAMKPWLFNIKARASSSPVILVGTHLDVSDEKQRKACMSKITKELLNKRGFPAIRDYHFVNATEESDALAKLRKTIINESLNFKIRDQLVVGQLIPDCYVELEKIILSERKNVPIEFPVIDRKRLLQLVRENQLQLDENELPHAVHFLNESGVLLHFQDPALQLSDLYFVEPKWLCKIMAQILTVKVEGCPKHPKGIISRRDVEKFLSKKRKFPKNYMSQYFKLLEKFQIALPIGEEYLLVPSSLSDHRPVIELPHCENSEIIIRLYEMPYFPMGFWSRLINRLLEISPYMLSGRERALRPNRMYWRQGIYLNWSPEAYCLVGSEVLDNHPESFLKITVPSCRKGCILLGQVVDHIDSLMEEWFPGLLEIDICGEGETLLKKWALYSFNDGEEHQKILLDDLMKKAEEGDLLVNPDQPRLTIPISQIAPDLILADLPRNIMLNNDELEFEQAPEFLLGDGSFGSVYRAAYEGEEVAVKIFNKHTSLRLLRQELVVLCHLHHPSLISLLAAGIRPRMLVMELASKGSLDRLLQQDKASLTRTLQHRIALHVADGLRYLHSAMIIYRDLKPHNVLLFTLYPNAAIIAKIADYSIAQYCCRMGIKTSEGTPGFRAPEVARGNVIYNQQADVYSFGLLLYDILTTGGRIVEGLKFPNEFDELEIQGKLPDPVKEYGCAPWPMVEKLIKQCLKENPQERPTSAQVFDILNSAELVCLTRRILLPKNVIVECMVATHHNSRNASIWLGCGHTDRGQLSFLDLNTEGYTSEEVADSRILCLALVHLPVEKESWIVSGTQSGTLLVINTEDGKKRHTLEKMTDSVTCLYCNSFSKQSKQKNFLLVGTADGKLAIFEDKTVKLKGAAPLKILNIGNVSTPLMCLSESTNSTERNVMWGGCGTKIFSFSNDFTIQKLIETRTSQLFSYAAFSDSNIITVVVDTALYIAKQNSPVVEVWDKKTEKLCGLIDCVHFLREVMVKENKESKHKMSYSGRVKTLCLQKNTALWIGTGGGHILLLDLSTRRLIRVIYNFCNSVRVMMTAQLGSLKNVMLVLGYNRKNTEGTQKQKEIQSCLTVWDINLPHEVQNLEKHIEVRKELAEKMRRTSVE
Serine/threonine-protein kinase 26 (Homo sapiens), sequence (Q9P289 2-416 limits assumed): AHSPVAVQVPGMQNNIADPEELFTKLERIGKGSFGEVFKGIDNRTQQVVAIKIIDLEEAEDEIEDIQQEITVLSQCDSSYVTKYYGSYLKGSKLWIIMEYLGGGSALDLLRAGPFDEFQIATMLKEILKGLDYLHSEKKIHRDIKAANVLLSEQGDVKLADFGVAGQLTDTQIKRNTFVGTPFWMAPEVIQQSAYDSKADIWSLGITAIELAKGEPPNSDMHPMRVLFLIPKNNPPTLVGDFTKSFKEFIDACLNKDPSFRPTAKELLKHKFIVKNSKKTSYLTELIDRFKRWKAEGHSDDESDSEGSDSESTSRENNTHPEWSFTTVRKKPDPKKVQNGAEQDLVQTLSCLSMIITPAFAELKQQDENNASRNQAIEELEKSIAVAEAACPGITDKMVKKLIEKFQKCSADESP

Structure (SMILES)	Ki [1] [nM]	IC50 [2] [nM]	efflux ratio at 5 µM (P-gp (human MDR1))	also measured
c1cc(-c2n[nH]c3ccnc(OC4CCOCC4)c23)nc(N2CCOCC2)c1	147			
Cc1n[nH]c2ccnc(NC3CCOCC3)c12	182	426	1.1	clearance [9]: 25 mL/min/kg
c1cc(-c2n[nH]c3ccnc(OC4CCOCC4)c23)[nH]n1	44			
CC(C)c1nc(-c2n[nH]c3ccnc(NC4CCOCC4)c23)n[nH]1	7.8	35	21	clearance [3]: 35 mL/min/kg
CC(C)n1cc(-c2n[nH]c3ccnc(NC4CCOCC4)c23)nn1	1.2	49	23	
Cc1n[nH]c2ccnc(OC3CCOCC3)c12	44	301	0.9	clearance [9]: 34 mL/min/kg; Ratio Ki (Homo sapiens): 20
Cc1[nH]nc2ccnc(NC3CCOCC3)c12				Ratio Ki (Homo sapiens): 20
c1cc(-c2n[nH]c3ccnc(NC4CCOCC4)c23)cc(N2CCOCC2)n1		135	1.5	clearance [9]: 117 mL/min/kg

Continued by falling Ki [1], values first:

Ki [1] [nM]	IC50 [2] [nM]	efflux ratio at 5 µM (P-gp (human MDR1))	Structure (SMILES)	also measured
4600			CC(C)c1n[nH]c(-c2n[nH]c3ccnc(OC4CCOCC4)c23)n1	
3900		11	CCc1cc(-c2n[nH]c3ccnc(NC4CCOCC4)c23)n(C)n1	
151			CC(C)Nc1nccc2[nH]nc(-c3nnc(C4CC4)n3C)c12	
21	13	80	CC(C)(O)Cn1cc(-c2n[nH]c3ccnc(OC4CCOCC4)c23)cn1	clearance [3]: 30 mL/min/kg
4.2	24	3.4	c1cc(-c2n[nH]c3ccnc(OC4CCOCC4)c23)cc(N2CCOCC2)n1	clearance [9]: 69 mL/min/kg; Ratio Ki (Homo sapiens): 882; inhibition [10]: 60%; inhibition [4]: 86%
4.1	24	1.4	FC(F)(F)c1cc(-c2n[nH]c3ccnc(NC4CCOCC4)c23)ncn1	Ratio Ki (Homo sapiens): 1000; inhibition [4]: 52%; clearance [3]: 18 mL/min/kg; inhibition [5]: 59%; inhibition (TAK1/TAB1 (Homo sapiens)): 51%; bioavailability [6]: 62%; Kp [7]: 1; Kp uu [8]: 0.22
3.5		4	CCc1cc(-c2n[nH]c3ccnc(NC(C)C)c23)nn1C	
3.1	41	3.6	c1ccc(-c2n[nH]c3ccnc(NC4CCOCC4)c23)nc1	clearance [3]: 22 mL/min/kg
0.5	4.5	10	CCc1cc(-c2n[nH]c3ccnc(NC4CCOCC4)c23)nn1C	
